Where two headings read alike, the source gives them in different places.
How the values were obtained:
[1] = system: HIV-1 (IIIB) in MT-4 cells; assay: microbe, parasite or virus in culture; assay type: cell-based; details: Human immunodeficiency virus 1, IIIB
recombinant human BACE-1 = recombinant human BACE-1 (Homo sapiens (Human), UniProt P56817); assay: Beta-secretase (BACE) inhibition assay, fluorogenic enzymatic assay; assay type: biochemical
Experimental: Beta-Secretase (BACE) Inhibition Assay
Inhibitory potency against β-secretase (BACE) was measured using an enzymatic assay with a fluorogenic readout. 50 nM of recombinant human BACE-1 (R&D Systems) and test compound at one of various concentrations were added to a reaction buffer containing 20 mM sodium acetate at pH 4.8, with 0.06% Triton X-100, and 1% DMSO. […] The total volume of the assay solution was 100 μL. […] The slopes of the progress curves were the measure of reaction rates. Reaction rates were plotted as a function of inhibitor concentration, and the data were fit with a four-parameter logistic fit using Graphpad PRISM software to yield IC50 values.

[2] = Liver microsomal stability, human liver microsomes; details: human
Experimental: Liver Microsomal Stability Protocol
Test compounds and one control compound (verapamil) were tested in 3 different species in duplicate sets.
Test compound concentration: 1 uM; Protein concentration: 0.5 mg/mL (for dog, rat, and human liver microsomes); Cofactor: NADPH-Regenerating system (NRS) solution; Time-points: 2, 12, 25, 45, and 65 minutes.
Reaction Composition (in Each Incubation Well) Contains:
At an incubation temperature of 37° C., the reaction was started with addition of NADPH Regeneration System, at each time point, 25 uL of the reaction mixture was removed and added to a plate with 225 uL quenching solution (50% MeOH, 25% ACN, 25% H2O, and 200 nM labetalol as internal standard). After plates were vortexed, they were centrifuged for 30 minutes to remove proteins. About 100 μL supernatant was removed to a new plate and diluted with 150 μL water. About 20 μL of the mixture was injected into LC/MS/MS system to monitor the compound's response. In vitro measured t1/2 was used to calculate Clint values.

[3] = MT4, MT-4 cells, HIV-1, read-out: MT4 EC50

recombinant human BACE-1, sequence (P56817 46-501): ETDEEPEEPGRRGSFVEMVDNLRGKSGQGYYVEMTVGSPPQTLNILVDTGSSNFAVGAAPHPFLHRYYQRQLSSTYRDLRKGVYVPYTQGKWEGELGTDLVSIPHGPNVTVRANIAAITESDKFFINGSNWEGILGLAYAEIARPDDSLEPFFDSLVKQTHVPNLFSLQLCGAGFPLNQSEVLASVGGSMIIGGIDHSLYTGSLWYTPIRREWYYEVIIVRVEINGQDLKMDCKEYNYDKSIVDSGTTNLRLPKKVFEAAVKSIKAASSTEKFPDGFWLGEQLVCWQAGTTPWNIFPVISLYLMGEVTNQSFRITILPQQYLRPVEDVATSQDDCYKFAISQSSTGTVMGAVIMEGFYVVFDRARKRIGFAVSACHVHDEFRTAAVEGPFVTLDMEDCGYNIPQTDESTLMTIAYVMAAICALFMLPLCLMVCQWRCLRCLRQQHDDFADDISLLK

Compound	EC50 [1, 3] [nM]	half-life at 1 uM ([2]; liver microsomes) [h]	also measured
CC(C)(C[C@]1(c2ccc(-c3cnn(C4CC4)n3)cc2)NC(=N)N([C@H](COC(=O)NC2(C(F)F)CC2)c2ccc(Cl)c(-n3ncnc3C(F)F)c2)C1=O)C(F)(F)F [Compound 271]	12.6		IC50 (recombinant human BACE-1): > 100000 nM
CN(C(=O)OC[C@H](c1ccc(Cl)c(-n2cncn2)c1)N1C(=N)N[C@](CC(C)(C)C)(c2ccc(-c3cnn(C4CC4)c3)cc2)C1=O)C1CC1 [Compound 244]	7.66		IC50 (recombinant human BACE-1): > 100000 nM
CC(C)(C)C[C@]1(c2ccc3c(C(F)F)nccc3c2)NC(=N)N([C@H](COC(=O)NC2(C(F)(F)F)CC2)c2ccc(Cl)c(-n3ncnc3C(F)F)c2)C1=O [Compound 348]	7.46		IC50 (recombinant human BACE-1): > 100000 nM
CC(C)(C)C[C@]1(c2ccc(-c3cnn(C(F)F)c3)cc2)NC(=N)N([C@H](COC(=O)NC(C)(C)C(F)F)c2ccc(Cl)c(-c3ncn[nH]3)c2)C1=O [Compound 78]	74.9	≥ 6.58	
C[C@H](NC(=O)OC[C@H](c1ccc(Cl)c(-c2ncnn2C(F)F)c1)N1C(=N)N[C@](CC(C)(C)C(F)(F)F)(c2ccc(-c3cnn(C4CC4)n3)cc2)C1=O)C(F)(F)F [Compound 153]	14	≥ 6.58	
CC(C)(C[C@]1(c2ccc(-c3cnn(C4CC4)n3)cc2)NC(=N)N([C@H](CNC(=O)CC(F)(F)F)c2ccc(Cl)c(-n3ncnc3C(F)F)c2)C1=O)C(F)(F)F [Compound 391]	12.5	≥ 6.58	
CC(C)(C)C[C@]1(c2ccc(C#Cc3cnn(C(F)F)c3)c(F)c2)NC(=N)N([C@H](COC(=O)NC2(C(F)(F)F)CC2)c2ccc(Cl)c(-n3ncnc3C(F)F)c2)C1=O [Compound 361]	82	≥ 6.58	
Cn1ccc(-c2ccc([C@@]3(CC(C)(C)C)NC(=N)N([C@H](COC(=O)NC4(C(F)(F)F)CC4)c4ccc(Cl)c(-n5ncnc5C(F)F)c4)C3=O)cc2F)n1 [Compound 289]	8.26	≥ 6.58	
CC(C)(C[C@]1(c2ccc(-c3cnn(C4CC4)n3)cc2)NC(=N)N([C@H](CNC(=O)OC2CC2)c2ccc(Cl)c(-n3ncnc3C(F)F)c2)C1=O)C(F)(F)F [Compound 392]	24.3	≥ 6.58	
C[C@H](NC(=O)OC[C@H](c1ccc(Cl)c(-n2ncnc2C(F)F)c1)N1C(=N)N[C@](CC(C)(C)C)(c2ccc(-c3cnn(C(F)F)c3)cc2)C1=O)C(F)F [Compound 344]	12.1	≥ 6.58	
CC(C)(C)C[C@]1(c2ccc(-c3cnn(C(F)F)c3)cc2)NC(=N)N([C@H](COC(=O)NC(C)(C)C(F)F)c2ccc(Cl)c(-c3nccn3C(F)F)c2)C1=O [Compound 89]	34.4	≥ 6.58	
CC(C)(C#N)C[C@]1(c2ccc(-c3ccn(C(F)F)n3)cc2)NC(=N)N([C@H](COC(=O)NC2(C(F)(F)F)CC2)c2ccc(Cl)c(-n3ncnc3C(F)F)c2)C1=O [Compound 336]	74.7	≥ 6.58	
CC(C)(F)C[C@]1(c2ccc(-c3cnn(C(F)F)c3)cc2)NC(=N)N([C@H](COC(=O)NC(C)(C)C(F)F)c2ccc(Cl)c(-c3ncnn3C(F)F)c2)C1=O [Compound 129]	27.3	≥ 6.58	
CC(C)(C)C[C@]1(c2ccc(-c3cnn(C(F)F)c3)cc2)NC(=N)N([C@H](COC(=O)NC(C)(C)C(F)F)c2ccc(Cl)c(-c3nncn3C(F)F)c2)C1=O [Compound 91]	200	≥ 6.58	
CC(C)(C)C[C@]1(c2ccc(-c3cnn(C4CC4)n3)cc2)NC(=N)N([C@H](CNS(=O)(=O)C2CC2)c2ccc(Cl)c(-n3ncnc3C(F)F)c2)C1=O [Compound 387]	47.9	≥ 6.58	
CC(C)(C)C[C@]1(c2ccc(-c3cnn(S(C)(=O)=O)c3)c(F)c2)NC(=N)N([C@H](COC(=O)NC2(C(F)(F)F)CC2)c2ccc(Cl)c(-n3ncnc3C(F)F)c2)C1=O [Compound 290]	11.6	≥ 6.58	
CC(C)(C)C[C@]1(c2ccc(-c3cnn(C(F)F)c3)cc2)NC(=N)N([C@H](COC(=O)NC2(C(F)F)CC2)c2ccc(Cl)c(-n3ncnc3C(F)F)c2)C1=O [Compound 179]			EC50 ([1]; MT4, read-out: MT4 EC50 (nM)): 9.37 nM; half-life at 1 uM ([2]; microsomes): ≥ 6.58 h
[H]/N=C1\N[C@](CC(C)(C)C)(c2ccc(-c3cnn(C(F)F)c3)cc2)C(=O)N1[C@H](COC(=O)NC1CC1)c1ccc(Cl)c(-c2ncn(C(F)F)n2)c1 [Compound 34]	38.7	≥ 6.58	

Compound	EC50 [1, 3] [nM]	half-life at 1 uM ([2]; liver microsomes) [h]	also measured
CC(C)(C[C@]1(c2ccc(-c3cnn(C4CC4)n3)cc2)NC(=N)N([C@H](CNC(=O)CC(F)(F)F)c2ccc(Cl)c(-c3ncnn3C(F)F)c2)C1=O)C(F)(F)F [Compound 160]	12.6	≥ 6.58	
CC(C)(C)C[C@]1(c2ccc(-n3ccnn3)cc2)NC(=N)N([C@H](COC(=O)NC2(C(F)(F)F)CC2)c2ccc(Cl)c(-n3ncnc3C(F)F)c2)C1=O [Compound 351]	17.9		half-life at 1 uM ([2]; human liver microsomes): ≥ 6.58 h
C[C@H](NC(=O)OC[C@H](c1ccc(Cl)c(-c2ncnn2C(F)F)c1)N1C(=N)N[C@](CC(C)(C)C)(c2ccc(-c3cnn(C(F)F)n3)cc2)C1=O)C(F)(F)F [Compound 163]	9.06	≥ 6.58	
CC(C)(C)C[C@]1(c2ccc(-c3cnn(S(=O)(=O)C4CC4)c3)c(F)c2)NC(=N)N([C@H](COC(=O)NC2(C(F)(F)F)CC2)c2ccc(Cl)c(-n3ncnc3C(F)F)c2)C1=O [Compound 291]	11.8	≥ 6.58	
CC(C)(C)C[C@]1(c2ccc(-c3cnn(C(F)F)c3)cc2)NC(=N)N([C@H](COC(=O)NC2(C(F)(F)F)CC2)c2ccc(Cl)c(-c3ccccn3)c2)C1=O [Compound 20]	76.7	≥ 6.58	
CC(C)C[C@]1(c2ccc(-c3cnn(C(F)F)c3)cc2F)NC(=N)N([C@H](COC(=O)NC2(C(F)(F)F)CC2)c2ccc(Cl)c(-n3ncnc3C(F)F)c2)C1=O [Compound 278]	23.6	≥ 6.58	
CC(C)(C)C[C@]1(c2ccc(-c3cnn(C(F)F)c3)c(F)c2)NC(=N)N([C@H](COC(=O)N[C@@H]2CC2(F)F)c2ccc(Cl)c(-n3ncnc3C(F)F)c2)C1=O [Compound 339]	9.09	≥ 6.58	
CC(C)(C[C@]1(c2ccc(-c3cnn(C4CC4)n3)cc2)NC(=N)N([C@H](COC(=O)NC2(C(F)(F)F)CC2)c2ccc(Cl)c(-c3ncnn3C(F)F)c2)C1=O)C(F)F [Compound 154]	19.7	≥ 6.58	
CC(C)(C)C[C@]1(c2ccc(-n3cnnc3)cc2)NC(=N)N([C@H](COC(=O)NC2(C(F)(F)F)CC2)c2ccc(Cl)c(-n3ncnc3C(F)F)c2)C1=O [Compound 359]	424	≥ 6.58	
C[C@H](NC(=O)OC[C@H](c1ccc(Cl)c(-n2ncnc2C(F)F)c1)N1C(=N)N[C@](CC(C)(C)C)(c2ccc(-c3cn(C4(C(F)(F)F)CC4)nn3)cc2)C1=O)C(F)(F)F [Compound 363]	11.7	≥ 6.58	
CC(C)(C)C[C@]1(c2ccc(-c3cnn(C4CC4)n3)cc2F)NC(=N)N([C@H](COC(=O)NC2(C(F)(F)F)CC2)c2ccc(Cl)c(-n3ncnc3C(F)F)c2)C1=O [Compound 224]	19.5	≥ 6.58	
CC(C)(C[C@]1(c2ccc(-c3cnn(S(C)(=O)=O)c3)cc2)NC(=N)N([C@H](COC(=O)NC2(C(F)(F)F)CC2)c2ccc(Cl)c(-n3ncnc3C(F)F)c2)C1=O)C(F)(F)F [Compound 308]	16.3	≥ 6.58	
CC(C)(F)C[C@]1(c2ccc(-c3cnn(C(F)F)c3)cc2)NC(=N)N([C@H](COC(=O)NC2(C(F)(F)F)CC2)c2ccc(Cl)c(-c3ncnn3C(F)F)c2)C1=O [Compound 134]	18.5	≥ 6.58	
CC(C)(C)C[C@]1(c2ccc(-c3cn(C4CC4)nn3)c(F)c2)NC(=N)N([C@H](COC(=O)NC2(C(F)(F)F)CC2)c2ccc(Cl)c(-n3ncnc3C(F)F)c2)C1=O [Compound 352]	10.9	≥ 6.58	
CC(C)(C)C[C@]1(c2ccc(-c3cnn(C(F)F)c3)cc2)NC(=N)N([C@H](COC(=O)NC2(C(F)(F)F)CC2)c2ccc(Cl)c(-c3nnn[nH]3)c2)C1=O [Compound 72]	5710	≥ 6.58	
CC(C)(C)C[C@]1(c2ccc(-c3cn[nH]n3)cc2)NC(=N)N([C@H](COC(=O)NC2(C(F)(F)F)CC2)c2ccc(Cl)c(-n3ncnc3C(F)F)c2)C1=O [Compound 372]	47.3	≥ 6.58	
Cn1ccc(-c2ccc([C@@]3(CC(C)(C)C)NC(=N)N([C@H](COC(=O)NC4CC4(F)F)c4ccc(Cl)c(-n5ncnc5C(F)F)c4)C3=O)cc2F)n1 (stereo partly drawn) [Compound 295]	7.33	≥ 6.58	
CC(C)(C)C[C@]1(c2ccc(-c3cnn(S(C)(=O)=O)c3)c(F)c2)NC(=N)N([C@H](COC(=O)NC2(C(F)F)CC2)c2ccc(Cl)c(-n3ncnc3C(F)F)c2)C1=O [Compound 303]	11.2	≥ 6.58	
